According to US12187717B2, “Compound and use thereof in treating autoimmune diseases” (PARENCHYMA BIOTECH INC., priority 2022, dated 2025):

Assays:
[1] = system: experimental autoimmune encephalomyelitis (EAE); assay: Experimental autoimmune encephalomyelitis (EAE) model of multiple sclerosis; type: in vivo, C57BL/6 mice; details: 10 mg/kg oral daily, 15th to 20th days; 21st day; 0-5 stages; solvent control 2.9±1.92
Experimental: On day 0 of the experiment, myelin oligodendrocyte glycoprotein (MOG) 35-55 peptide (MOG35-55, Peptron) (200 μg), heat killed Mmycobacterium tuberculosis, Difco, Cat No. 231141) (500 μg), and an adjuvant (incomplete freund's adjuvant, Sigma Aldrich, Cat No. F5506) were mixed for 7 minutes to form an emulsion. MOG35-55 emulsion was subcutaneously injected into both flanks of C57BL/6 mice (7-8 weeks old, female), respectively, and then 100 μl of pertussis toxin (Sigma Aldrich, Cat No. P2980) (200 ng) was administered into the tail vein. On the 2nd day of the experiment, an equal amount of pertussis toxin was administered intravenously. […]
In the compound 6 administration group according to an embodiment of the present invention, 10 mg/kg of Compound 6 per mouse was completely dissolved in an ethanol-Cremophor EL mixture corresponding to 7.5% (v/v) of the administered dose, and then, was diluted in phosphate buffered saline to prepare the final ethanol:Cremophor EL:phosphate buffered saline (0.375:0.375:9.25, v/v/v), followed by oral administration with 200 μl of the prepared solution daily for a total of 6 times from the 15th to 20th days of the experiment. The multiple sclerosis index was visually observed and recorded in the severity index system classified into 0-5 stages. […]

CYP3A4 = CYP3A4 (Homo sapiens, UniProt P08684); details: 2 days, 10 μM
Experimental: Live human hepatocyte cell lines (Corning, Cat No. 454551) were collected using a plating medium, seeded on a 24-well plate so that a cell density thereof was 0.4×10^6 cells/well, and cultured for 2 to 4 hours. After replacing the plating medium with a hepatocyte culture medium, the hepatocytes were cultured for 24 hours. After culturing for 24 hours, hepatocytes were treated with Compound 6 at 1, 5, 25 µM. The medium containing the compound was changed every 24 hours for 2 days. The cultured cells were recovered to prepare mRNA samples. mRNA was extracted from the recovered cells by a phenol-chloroform sedimentation method using TRIZOL reagent (Invitrogen, Cat No. 15596018). From the isolated RNA, cDNA was synthesized by reverse transcription, followed by measuring drug metabolizing enzymes CYP1A2, CYP2C9, CYP2C19, CYP2B6, and CYP3A4 through real-time PCR analysis using the Quant Studio™ 7 Flex Real-Time PCR System (Applied Biosystems, CA). Relative values of the enzyme expression levels were compared by the ΔΔct method using GAPDH as a control enzyme. Herein, one (1) fold was set using the control. Results are expressed as % of control compared to control sample.

Th17 cells = assay: IL-17A production of Th17 cells (flex set, flow cytometry); type: cell-based, C57BL/6 mice; details: 1.0 μM, 2.5 μM and 5 μM, 3 days, compared to Comparative Example 1
Experimental: The spleen of C57BL/6 mice (8 to 12 weeks old, female) was excised, pulverized by adding IMDM medium, and then passed through a 40 μm cell strainer (BD Falcon), thereby obtaining a single cell suspension. The single cell suspension was centrifuged (1200 rpm, 5 minutes), and after discarding the supematant, 1 ml of ACK lysis buffer was added, followed by stirring for 1 minute and then washing the same with RPMI medium. After the single cell suspension was centrifuged, T-cells were separated using a Mouse CD4 Naive T cell Enrichment Kit (Invitrogen). The separated T-cells were prepared by resuspending them in RPMI-fetal bovine serum (FBS) 10%+2-ME (mercaptoethanol) medium at 1×10^6/ml. For T-cell activation, 5 μg/ml anti-CD3 (eBioscience™) was dispensed by 100 μl onto a 96-well plate, reacted in a cell incubator (37° C., 5% CO2 incubator) for 4 hours, and washed with phosphate buffered saline to prepare the plate. The T-cells were dispensed by 200 μl onto the prepared plate, and each well was treated with 2 μg/ml of anti-CD28 (eBioscience™), 3 ng/ml of TGFβ-1 (R&D systems), 10 ng/ml of IL-2 (R&D systems), 5 μg/ml of anti-mouse IFN-γ (Bio X cell), and 5 μg/ml of anti-mouse IL-4 (Bio X cell). […]

Sequence of CYP3A4 (P08684 whole entry): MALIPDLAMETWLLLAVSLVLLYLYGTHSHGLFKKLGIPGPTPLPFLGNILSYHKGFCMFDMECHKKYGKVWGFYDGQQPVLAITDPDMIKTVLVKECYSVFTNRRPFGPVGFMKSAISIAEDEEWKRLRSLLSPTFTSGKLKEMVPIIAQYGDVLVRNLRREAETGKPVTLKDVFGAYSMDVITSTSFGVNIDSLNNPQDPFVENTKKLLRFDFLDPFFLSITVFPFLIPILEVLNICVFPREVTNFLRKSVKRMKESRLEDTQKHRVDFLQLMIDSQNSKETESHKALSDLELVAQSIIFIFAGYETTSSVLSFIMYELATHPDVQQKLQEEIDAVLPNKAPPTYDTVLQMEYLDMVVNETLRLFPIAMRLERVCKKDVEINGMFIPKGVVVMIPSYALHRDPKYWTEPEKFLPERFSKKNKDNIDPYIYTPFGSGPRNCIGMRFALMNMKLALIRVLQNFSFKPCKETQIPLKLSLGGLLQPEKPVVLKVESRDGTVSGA

O=C(Cc1c[nH]c2ccc(Cl)cc12)Nc1nc2ccc(N3CCOCC3)cc2s1 [Compound 6, 2-(5-chloro-1H-indol-3-yl)-N-(6-morpholinobenzo[d]thiazol-2-yl)acetamide]
disease severity index (EAE) [1]: 0.92±0.58
CYP3A4 activity (CYP3A4): 85.7 % of Control Activity
IL-17A production of Th17 cells (Th17 cells): significantly decreased
